≈ marks a conversion by molar mass, not a printed value. Read-outs that look alike come from different tables or passages of the source. Some results are limits rather than exact numbers.

This is an account of results in article PMC12400508 (RSC Advances, 2025).

One assay has as its system mc^26230 pMV261. Description: microbe, parasite or virus in culture. The assay is classed as cell-based. The note with it: Mycobacterium tuberculosis, read-out: MIC, pMV261.
The next assay deals with Mtb mc^26230. Description: microbe, parasite or virus in culture. The assay is classed as cell-based, Mycobacterium tuberculosis. As to conditions: for MIC (MIC99): Mtb mc^26230, 6 days, Table 1 and text; for MIC: Mycobacterium tuberculosis.
In a further assay the test system is THP-1 cells. In words: Cytotoxicity assay in THP-1 cells. It counts as cell-based, Human. As to conditions: for IC50: Homo sapiens, THP-1, 72 h, read-out: IC50 (reduces the viability of THP-1 cells by 50%); for SI, selectivity index (IC50/MIC): THP-1 IC50 / Mtb MIC.
[1] abbreviates: read-out: MIC, mc^26230 (parental strain).

`O=C1N=C(NNC(=O)c2ccncc2)S/C1=C\c1ccc(Cl)cc1` [9n]: the MIC in the assay with mc^26230 pMV261 was 25 µg/mL (≈ 69.7 µM); with Mtb mc^26230, 12.5 µg/mL (≈ 34.8 µM); in the assay on Mtb mc^26230 (read-out: MIC, Wild-type), 12.5 µg/mL (≈ 34.8 µM); in the assay with Mtb mc^26230 (setting [1]), 12.5 µg/mL (≈ 34.8 µM). The “MIC (MIC99)” value with Mtb mc^26230 worked out at 12.5 µg/mL (≈ 34.8 µM).
Take `O=C1N=C(NNC(=O)c2ccncc2)S/C1=C\c1ccccc1Cl` [9p]: in the assay with Mtb mc^26230 (setting [1]), the MIC was found to be 25 µg/mL (≈ 69.7 µM).
Take `CO[C@H]1/C=C/O[C@@]2(C)Oc3c(C)c(O)c4c(O)c(c(/C=N/N5CCN(C)CC5)c(O)c4c3C2=O)NC(=O)/C(C)=C\C=C\[C@H](C)[C@H](O)[C@@H](C)[C@@H](O)[C@@H](C)[C@H](OC(C)=O)[C@@H]1C` [RIF, reference compound]: the MIC is 0.039 µg/mL (≈ 0.0474 µM) in the assay on mc^26230 pMV261 and 0.039 µg/mL (≈ 0.0474 µM) with Mtb mc^26230 (read-out: MIC, Wild-type).
For `O=C1N=C(NNC(=O)c2ccncc2)S/C1=C\c1ccccc1F` [9l], the MIC in the assay with Mtb mc^26230 (setting [1]) turned out to be 25 µg/mL (≈ 73 µM).
Consider `NNC(=O)c1ccncc1` [INH, isoniazid, reference compound], for which the MIC worked out at 0.078 µg/mL (≈ 0.569 µM) with mc^26230 pMV261; 0.039 µg/mL (≈ 0.284 µM) against Mtb mc^26230; 0.078 µg/mL (≈ 0.569 µM) in the assay with Mtb mc^26230 (read-out: MIC, Wild-type); 0.039 µg/mL (≈ 0.284 µM) with Mtb mc^26230 (setting [1]). Also, the IC50 with THP-1 cells was > 100 µg/mL. The “SI, selectivity index (IC50/MIC)” value with THP-1 cells was >100.
`Cc1ccccc1/C=C1\SC(NNC(=O)c2ccncc2)=NC1=O` [9d]: the MIC is 3.12 µg/mL (≈ 9.22 µM) with mc^26230 pMV261; 1.56 µg/mL (≈ 4.61 µM) with Mtb mc^26230; 1.56 µg/mL (≈ 4.61 µM) with Mtb mc^26230 (read-out: MIC, Wild-type); 1.56 µg/mL (≈ 4.61 µM) with Mtb mc^26230 (setting [1]). Besides, in the assay on THP-1 cells, the IC50 came to 21 µg/mL (≈ 62.1 µM). The “SI, selectivity index (IC50/MIC)” value in the assay with THP-1 cells was found to be 14.
`O=C1N=C(NNC(=O)c2ccncc2)S/C1=C\c1ccc(F)cc1` [9j]: the MIC in the assay on mc^26230 pMV261 is 12.5 µg/mL (≈ 36.5 µM); against Mtb mc^26230, 12.5 µg/mL (≈ 36.5 µM); in the assay with Mtb mc^26230 (read-out: MIC, Wild-type), 12.5 µg/mL (≈ 36.5 µM); with Mtb mc^26230 (setting [1]) it was 12.5 µg/mL (≈ 36.5 µM). In addition, the “MIC (MIC99)” value in the assay with Mtb mc^26230 is 12.5 µg/mL (≈ 36.5 µM). For the same molecule, the IC50 in the assay with THP-1 cells stood at 18 µg/mL (≈ 52.6 µM). Further, in the assay with THP-1 cells, the “SI, selectivity index (IC50/MIC)” value came to 1.4.
